7 compounds from patent US4918056A, “2-substituted arabinopyranosyl nucleosides and nucleotides” (priority 1986, dated 1990) can be followed below.

Where only a bound is given, the exact number is not on record here.

For data set [1], the system named is L1210 leukemia cells. Put plainly: L1210 leukemia cell growth inhibition (48 hr, Coulter counter). The class given is cell-based, mouse. Conditions: for IC50: Mus musculus, L1210, RPMI 1640, 10% fetal calf serum; for growth inhibitory activity in words: compared with 85024. On the procedure:
Compounds 85024, 85023, 85058, 85027 and 85060 having a glycosidic linkage between the 2'carbon of the arabinose (in pyranose configuration) and base were evaluated for their growth inhibitory action on L1210 leukemia cells maintained in RPMI 1640 medium supplemented with 10% fetal calf serum and 16 mM HEPES, pH 7.2. Cellular growth inhibition was determined by incubating […] for 48 hr in 2 ml of media containing varying concentrations of drugs. Cell growth inhibition (50% growth inhibitory concentration, IC50) was determined after counting cells with a Coulter counter (Bernacki et al., Cancer Res. 45, 695, 1985). Drug concentrations which inhibited cell growth by 50% (IC50) are listed for each compound in Table 1.

In data set [2] the test system is L1210 leukemia cells. Put plainly: Reversal of L1210 growth inhibition by salvageable nucleosides. The class given is cell-based, mouse. Conditions: for IC50: Mus musculus. On the procedure: Reversal studies were conducted as follows: […], 85027 or 5-FdUr were added at various concentrations near their IC50 to cultures of L1210 leukemia cells, maintained in PRMI 1640 medium supplemented with 10% fetal calf serum and 16mM HEPES, pH 7.2 as described in Example 9. Nucleosides including thymidine (1×10^-5 M), uridine (1×10^-4 M), deoxyuridine ([…]), adenosine (1×10^-4 M), or guanosine (1×10^-5 M) were also added to identical drug (85024, 85027 or 5-FdUr) containing L1210 leukemia cultures. Cellular growth inhibition or its prevention by the addition of salvageable nucleosides was determined 48 hours later by counting cells using an electronic Coulter Counter.

The test system of data set [3] is L1210 leukemia. Put plainly: Therapeutic activity of 85027, 5-FU and ara-C in DBA/2 mice with L1210 leukemia. The data set is classed as in vivo, mouse (DBA/2). The arrangement: Mean ± SD survival: unit not given here. Conditions: for Median survival: control 6; for Mean ± SD survival: control 6.4 ± 0.2. On the procedure:
The therapeutic activity of 85027 was compared with that of 5-Fluorouracil (5-FU) and Cytosine Arabinoside (ara-C) in DBA/2 mice with L1210 Leukemia. (Table 3) Tests were performed in accordance with the procedure described in Example 8. […] 5-FU was administered i.p. on days 1,3 and 6.

Data set [4] deals with L1210/ara-C leukemia. Put plainly: Therapeutic activity in DBA/2N mice with ara-C resistant L1210 leukemia. On the procedure: (§1) In conducting the evaluations, the activity was tested against intraperitoneal (i.p.) implanted leukemia in mice.
(§2) DBA/2N female mice (20 g) were implanted i.p. with 1×10^6 L1210 leukemia cells on day 0. Mice were weighed and inspected for tumor growth and survival daily. […] Dosages varied from 1 to 800 mg/kg/day (mkd).
(§3) Survival time was measured in days after tumor implantation. % ILS (increase in life span) was based on mean survival.
(§4) Testing was followed as described in the NCI protocol and evaluation by comparison of median survival time (ST) of the treated animals to that of the control animals by the percentage increase in % ILS.
(§5) Drug resistant L1210 leukemia cell sublines were obtained from the National Cancer Institute. […] Eight mice were used as controls and five mice for each drug dosage group. Drugs were administered i.p. once per day on days 1, 2, 3, 4 and 5.

Data set [5] concerns L1210/5-FU leukemia. Put plainly: Therapeutic activity in DBA/2N mice with 5-FU resistant L1210 leukemia. The class given is in vivo, mouse (DBA/2N female). On the procedure:
as §1, §2, §3, §4, §5

[6] abbreviates: 5 mkd i.p. (head: × 5; text: × 3, days 1, 3 and 6).
[7] abbreviates: 25 mkd i.p. (head: × 5; text: × 3, days 1, 3 and 6).

For `CCCCCC(=O)O[C@@H]1[C@H](OC(=O)CCCCC)COC(OC)[C@@]1(F)n1ccc(=O)[nH]c1=O` (stereo partly drawn) [compound 85058, Methyl 2-deoxy-2(R)-[1H,3H-2,4-dioxo-1-pyrimidinyl]-2-fluoro-3,4-di-0-hexanoyl-α-D-arabinopyranoside [5d] and Methyl 2-deoxy-2(R)-[1H,3H-2,4-dioxo-1-pyrimidinyl]-2-fluoro-3,4-di-0-hexanoyl-β-D-arabinopyranoside [6d]], in data set [1], half-maximal inhibition (IC50) required 40 µM and the “growth inhibitory activity in words” value is reported as “did not significantly affect activity”.

On to `COC1OC[C@H]2OC(C)(C)O[C@H]2C1(F)n1ccc(=O)[nH]c1=O` (mixture of isomers) [compound 85023, Methyl 2-deoxy-3,4-0-isopropylidene-2-rac-[1H,3H-2,4-dioxo-1-pyrimidinyl]-2-fluoro-α-D-arabinopyranoside [5g] and Methyl 2-deoxy-3,4-0-isopropylidene-2-rac-[1H,3H-2,4-dioxo-1-pyrimidinyl]-2-fluoro-β-D-arabinopyranoside [6g]], for which, in data set [1], the half-inhibitory concentration (IC50) was greater than 100 µM and the “growth inhibitory activity in words” value is listed as “loss in biological inactivity”.

Take `O=c1[nH]c(=O)n([C@H]2C[C@H](O)[C@@H](CO)O2)cc1F` [5-FdUr, 5-Fluorodeoxyuridine, reference compound]: the half-inhibitory concentration (IC50) in data set [2] (L1210, with 1×10^-5 M thymidine) is greater than 0.01 µM; in data set [2] (L1210, without added thymidine) it was 0.0003 µM.

For the compound `Nc1ccn([C@@H]2O[C@H](CO)[C@@H](O)[C@@H]2O)c(=O)n1` [ara-C, Cytosine Arabinoside], the “Survival Range” value in data set [3] (50 mkd × 5 i.p.) is 9 to 14 days; in data set [3] (100 mkd × 5 i.p.), 14 to 15 days; in data set [3] (200 mkd × 5 i.p.), 8 to 19 days; in data set [4] (100 mkd × 5 i.p.), 7-7 days. In addition, the Median survival in data set [3] (50 mkd × 5 i.p.) was determined as 14 days; in data set [3] (100 mkd × 5 i.p.), 14 days; in data set [3] (200 mkd × 5 i.p.) it was 9 days; in data set [4] (100 mkd × 5 i.p., control 7), 7 days. Also, the “Mean ± SD survival” value is reported as 13.0 ± 1.0 in data set [3] (50 mkd × 5 i.p.); 14.4 ± 0.2 in data set [3] (100 mkd × 5 i.p.); 12.4 ± 2.3 in data set [3] (200 mkd × 5 i.p.); 0 days in data set [4] (100 mkd × 5 i.p., control 7.1 + 0.1). The “% ILS (increase in life span)” value is given as 104% in data set [3] (ara-C, 50 mkd × 5 i.p., p < .05); 126% in data set [3] (ara-C, 100 mkd × 5 i.p., p < .01); 95% in data set [3] (ara-C, 200 mkd × 5 i.p., p < .01); 0% in data set [4] (100 mkd × 5 i.p., NS). Further, the effect on lifespan entry in data set [3] (i.p. 5 day schedule, 50, 100 and 200 mg/kg) was “most effective causing a doubling of lifespan”. Also, the therapeutic effect entry in data set [4] (mice with L1210/ara-C leukemia (Table 4)) is given as “no therapeutic effect”. For the same compound, in data set [4] (mouse, in vivo, ip), the “Mean Animal Weight” value was determined as 20.0 g.

As for `O=c1[nH]cc(F)c(=O)[nH]1` [5-FU, 5-Fluorouracil], the “% ILS (increase in life span)” value is listed as 41% in data set [3] (5-FU, 5 mkd i.p. (head: × 5; text: × 3, days 1, 3 and 6), p < .01); 88% in data set [3] (5-FU, 25 mkd i.p. (head: × 5; text: × 3, days 1, 3 and 6), p < .01); 34% in data set [3] (5-FU, 50 mkd × 5 i.p., p < .01); 22% in data set [3] (5-FU, 100 mkd × 5 i.p., p < .05); 22% in data set [3] (5-FU, 200 mkd × 5 i.p., p < .05); 12% in data set [5] (25 mkd × 5 i.p.). Besides, the “Survival Range” value was 9-9 days in data set [3] (setting [6]); 12-12 days in data set [3] (setting [7]); 8 to 9 days in data set [3] (50 mkd × 5 i.p.); 7 to 8 days in data set [3] (100 mkd × 5 i.p.); 7 to 8 days in data set [3] (200 mkd × 5 i.p.); 5 to 9 days in data set [5] (25 mkd × 5 i.p.). The Median survival was found to be 9 days in data set [3] (setting [6]); 12 days in data set [3] (setting [7]); 9 days in data set [3] (50 mkd × 5 i.p.); 8 days in data set [3] (100 mkd × 5 i.p.); 8 days in data set [3] (200 mkd × 5 i.p.); 8 days in data set [5] (25 mkd × 5 i.p., control 9). Also, the “Mean ± SD survival” value in data set [3] (setting [6]) is recorded as 9; in data set [3] (setting [7]), 12; in data set [3] (50 mkd × 5 i.p.) it was 8.6 ± 0.2; in data set [3] (100 mkd × 5 i.p.), 7.8 ± 0.2; in data set [3] (200 mkd × 5 i.p.), 7.8 ± 0.2; in data set [5] (25 mkd × 5 i.p., control 9.25 ± 0.2), 7.6 ± 0.7 days. For the same compound, in data set [3] (50, 100 and 200 mkd × 5 i.p.), the toxicity to mice result is “extremely toxic to mice causing severe weight loss”. Besides, in data set [3] (50, 100 and 200 mkd × 5 i.p.), the “weight to which mice fell (severe weight loss)” value is 13 to 14 g. The therapeutic effect entry in data set [5] (25 mkd × 5) is reported as “did not”. Further, the “Mean Animal Weight” value in data set [5] (25 mkd × 5 i.p.) is given as 17.6 g.

As to `COC1OC[C@@H](OC(C)=O)[C@@H](OC(C)=O)[C@]1(F)n1cc(C)c(=O)[nH]c1=O` (stereo partly drawn) [compound 85060, Methyl 3,4-di-0-acetyl-2-deoxy-2(R)-[1H,3H-2,4-dioxo-5-methyl-1-pyrimidinyl]-2-fluoro-α-D-arabinopyranoside [5c] and Methyl 3,4-di-0-acetyl-2-deoxy-2(R)-[1H,3H-2,4-dioxo-5-methyl-1-pyrimidinyl]-2-fluoro-β-D-arabinopyranoside [6c]], in data set [1], the IC50 is greater than 100 µM and the “growth inhibitory activity in words” value was “inactive”.

Compound `COC1OC[C@@H](OC(C)=O)[C@@H](OC(C)=O)[C@]1(F)n1cc(F)c(=O)[nH]c1=O` (stereo partly drawn) [compound 85027, Methyl 3,4-di-0-acetyl-2-deoxy-2(R)-[1H,3H-2,4-dioxo-5-fluoro-1-pyrimidinyl]-2-fluoro-α-D-arabinopyranoside [5b] and Methyl 3,4-di-0-acetyl-2-deoxy-2(R)-[1H,3H-2,4-dioxo-5-fluoro-1-pyrimidinyl]-2-fluoro-β-D-arabinopyranoside[6b]] showed an IC50 in data set [1] of 34 µM. For the same compound, the “Survival Range” value is 8-8 days in data set [3] (50 mkd × 5 i.p.), 7 to 8 days in data set [3] (100 mkd × 5 i.p.) and 8 to 9 days in data set [3] (200 mkd × 5 i.p.). The Median survival in data set [3] (50 mkd × 5 i.p.), in data set [3] (100 mkd × 5 i.p.) and in data set [3] (200 mkd × 5 i.p.) was 8 days throughout. Moreover, the “Mean ± SD survival” value in data set [3] (50 mkd × 5 i.p.) worked out at 8 ± 0; in data set [3] (100 mkd × 5 i.p.) it was 7.8 ± 0.2; in data set [3] (200 mkd × 5 i.p.) it was 8.2 ± 0.22. In data set [3] (200 mkd × 5 i.p.), the “therapeutic activity compared with araC” value is listed as “less therapeutic activity than araC”. Moreover, the “% ILS (increase in life span)” value in data set [3] (85027, 50 mkd × 5 i.p., p < 0.01) stood at 25%; in data set [3] (85027, 100 mkd × 5 i.p., p < 0.05) it was 22%; in data set [3] (85027, 200 mkd × 5 i.p., p < 0.01) it was 29%. For the same compound, the “cross resistance to ara-C and 5-FU” value in data set [4] (summary of L1210/ara-C and L1210/5-FU tests) was “not cross resistant”. The “reversal of cellular cytotoxicity by exogenous nucleosides” value in data set [2] (exogenous thymidine, uridine or deoxyuridine, tissue culture) is listed as “not reversed by exogenous thymidine, uridine or deoxyuridine”. In addition, the “effect of added nucleoside on the IC50” value in data set [2] (thymidine (1×10^-5 M), uridine (1×10^-4 M) or deoxyuridine (1×10^-5 M)) is listed as less than 10%.
